Some test systems named below: DU-145 prostate; EKVX NSCLC; HCC-2998 colon; M14 melanoma; OVCAR-5 ovarian; SK-OV-3 ovarian; SNB-19 CNS; U251 CNS; KM12 colon; MALME-3M melanoma; SNB-75 CNS.
What all share (experiment): inhibition of tumour cell growth, NCI panel, 48 h

Structures are written as SMILES.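 Dose response: 5 concentrations. Exposure: 48 h. Format: 96-well plates. Endpoint: linear interpolation; highest concentration if not reached. TGI: concentration producing complete growth inhibition.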

As for `CCOC(=O)C1CC(O)C(=O)N1C` (centres undefined), the TGI with DU-145 prostate, in the assay with EKVX NSCLC, with HCC-2998 colon, in the assay on M14 melanoma, with OVCAR-5 ovarian and in the assay with SK-OV-3 ovarian was more than 100 µM throughout. The TGI with SNB-19 CNS and in the assay on U251 CNS was more than 100 µM throughout.

On to `COC1C=CC23c4cc5c(cc4C(O)OC2CN(C)C3C1)OCO5` (centres undefined), for which the TGI in the assay with EKVX NSCLC was 32.9 µM; in the assay on HCC-2998 colon it was 5.71 µM; with KM12 colon, 13.4 µM; with M14 melanoma it was 3.15 µM; in the assay with MALME-3M melanoma it was 6.49 µM; with OVCAR-5 ovarian, 39.9 µM. This compound also showed a TGI with SNB-19 CNS of 7.36 µM.

For `Cc1cc(C)c2c(n1)S(=O)(=O)N(CCCN1CCN(c3cccc(C(F)(F)F)c3)CC1)/C(=C(\O)c1ccc(Cl)cc1)C2=O`, the TGI amounted to 19.9 µM with DU-145 prostate; 10.7 µM with EKVX NSCLC; 14.6 µM in the assay with KM12 colon; 18.1 µM in the assay on M14 melanoma; 15.8 µM in the assay on MALME-3M melanoma; 18.1 µM in the assay with OVCAR-5 ovarian. Further, the TGI stood at 20.3 µM in the assay on SK-OV-3 ovarian, 16.6 µM in the assay on SNB-19 CNS, 8.04 µM with SNB-75 CNS and 14.3 µM in the assay with U251 CNS.

In the case of `CC1=CC(=O)N(n2c(C)n[nH]c2=O)C1=O`, the TGI in the assay with DU-145 prostate, in the assay with EKVX NSCLC, with HCC-2998 colon, in the assay with KM12 colon, with M14 melanoma and with MALME-3M melanoma was more than 100 µM in each case. The TGI in the assay with OVCAR-5 ovarian, with SK-OV-3 ovarian, with SNB-19 CNS and in the assay on U251 CNS was more than 100 µM in each case.

For `O=C(O[C@H](/C=C/c1ccccc1)P1(=O)N(Cc2ccccc2)[C@@H]2CCCC[C@H]2N1Cc1ccccc1)c1ccccc1`, the TGI in the assay on EKVX NSCLC is 68 µM; with HCC-2998 colon it was more than 100 µM; in the assay on KM12 colon, 14.2 µM; with M14 melanoma, more than 100 µM; in the assay with MALME-3M melanoma, 12 µM; with OVCAR-5 ovarian, more than 100 µM. Also, the TGI in the assay on SK-OV-3 ovarian is more than 100 µM; in the assay on SNB-19 CNS, more than 100 µM; in the assay with U251 CNS, 31.3 µM.

Turning to `COc1ccc2c(c1)C(=O)c1ccccc1C2`, the TGI in the assay on DU-145 prostate is 35 µM; in the assay with EKVX NSCLC it was more than 100 µM; with HCC-2998 colon, more than 100 µM; in the assay with KM12 colon, more than 100 µM; with M14 melanoma, more than 100 µM; in the assay on OVCAR-5 ovarian, more than 100 µM. The TGI in the assay on SK-OV-3 ovarian is more than 100 µM; in the assay on SNB-19 CNS, more than 100 µM; with SNB-75 CNS, 63.5 µM; in the assay with U251 CNS it was more than 100 µM.

In the case of `CN(O)C(=O)Cc1ccc(OCc2cccc(Cl)c2)cc1`, the TGI with DU-145 prostate, in the assay with EKVX NSCLC, in the assay on HCC-2998 colon, in the assay with KM12 colon, in the assay on M14 melanoma and with OVCAR-5 ovarian was more than 100 µM throughout. Besides, the TGI with SK-OV-3 ovarian, in the assay with SNB-19 CNS, in the assay on SNB-75 CNS and with U251 CNS was more than 100 µM throughout.

For the compound `O=C1/C(=C/c2ccc(Br)s2)NC(=S)N1CN1CCOCC1`, the TGI in the assay with DU-145 prostate, with EKVX NSCLC, in the assay with HCC-2998 colon, in the assay with KM12 colon, in the assay with MALME-3M melanoma and with OVCAR-5 ovarian was more than 100 µM in each case. Also, the TGI in the assay with SNB-19 CNS, in the assay with SNB-75 CNS and with U251 CNS was more than 100 µM each time.

Turning to `C[C@]12CC/C(=N\O)C=C1CC[C@@H]1[C@@H]2CC[C@]2(C)C(=N/O)/C(=C/c3cccnc3)C[C@@H]12`, the TGI in the assay on DU-145 prostate was more than 100 µM; in the assay on EKVX NSCLC, 79.5 µM; with KM12 colon it was 32.1 µM; in the assay with M14 melanoma it was 75 µM; in the assay on MALME-3M melanoma, 72.3 µM; with OVCAR-5 ovarian, 75.3 µM. The TGI in the assay with SK-OV-3 ovarian is more than 100 µM; in the assay on SNB-19 CNS it was more than 100 µM; in the assay with U251 CNS it was 94.9 µM.

Turning to `OCc1ccccc1C1CSCSC1`, the TGI in the assay on KM12 colon, in the assay on MALME-3M melanoma, with SK-OV-3 ovarian, in the assay on SNB-75 CNS and in the assay with U251 CNS was more than 100 µM in each case.

For `NCCCC(N)C(=O)O` (centres undefined), the TGI with DU-145 prostate, in the assay with EKVX NSCLC, in the assay on KM12 colon, in the assay with M14 melanoma, with MALME-3M melanoma and in the assay on OVCAR-5 ovarian was more than 100 µM throughout. Also, the TGI in the assay on SK-OV-3 ovarian, in the assay with SNB-19 CNS, with SNB-75 CNS and in the assay on U251 CNS was more than 100 µM each time.

On to `Cc1cc2cccc(Cl)c2nc1C(=O)c1ccccc1`, for which the TGI with HCC-2998 colon, in the assay on KM12 colon, in the assay with M14 melanoma, in the assay with MALME-3M melanoma, in the assay on OVCAR-5 ovarian and in the assay with SNB-19 CNS was more than 100 µM in each case. The TGI is 56.8 µM with SNB-75 CNS and more than 100 µM in the assay on U251 CNS.

As to `CC(C)=CC1C(C(=O)O)C1(C)C` (centres undefined), the TGI in the assay on EKVX NSCLC, in the assay with HCC-2998 colon, in the assay with KM12 colon, in the assay with MALME-3M melanoma, in the assay on OVCAR-5 ovarian and with SK-OV-3 ovarian was more than 750 µM each time. Further, the TGI with SNB-19 CNS, in the assay on SNB-75 CNS and with U251 CNS was more than 750 µM throughout.

Turning to `N#CC(C#N)=C1CCCS(=O)(=O)c2ccccc21`, the TGI with DU-145 prostate, with EKVX NSCLC, in the assay with HCC-2998 colon, in the assay on KM12 colon, in the assay on M14 melanoma and with OVCAR-5 ovarian was more than 100 µM each time. Also, the TGI with SK-OV-3 ovarian, in the assay on SNB-19 CNS, with SNB-75 CNS and in the assay on U251 CNS was more than 100 µM throughout.

Take `CCOc1ccc(N=C/C=C(\Cl)c2ccc3ccccc3c2)cc1`: the TGI in the assay on DU-145 prostate worked out at 30.7 µM; in the assay with EKVX NSCLC, 62.1 µM; with KM12 colon, 33.9 µM; in the assay with M14 melanoma it was 37.7 µM; in the assay on MALME-3M melanoma it was 30.6 µM; in the assay with OVCAR-5 ovarian it was 36.3 µM. The TGI with SK-OV-3 ovarian was 38.4 µM; in the assay with SNB-19 CNS, 35.7 µM; in the assay on SNB-75 CNS, 33.4 µM; in the assay with U251 CNS, 33.4 µM.

The values are drawn from PubChem BioAssay (NCI).
